Test results reported in ChEMBL document CHEMBL1142050, “A two-state homology model of the hERG K+ channel: application to ligand binding” (Bioorg Med Chem Lett, 2005).

Legend:
[1] = target: T1, Voltage-gated inwardly rectifying potassium channel KCNH2 (Homo sapiens, UniProt Q12809); assay: Inhibition of human voltage-gated potassium channel subunit Kv11.1 (ERG K+ channel) in open state; type: functional
[2] = target: T1, Voltage-gated inwardly rectifying potassium channel KCNH2; assay: Inhibition of partially open human voltage-gated potassium channel subunit Kv11.1 (ERG K+ channel)

T1 sequence (Q12809 whole entry): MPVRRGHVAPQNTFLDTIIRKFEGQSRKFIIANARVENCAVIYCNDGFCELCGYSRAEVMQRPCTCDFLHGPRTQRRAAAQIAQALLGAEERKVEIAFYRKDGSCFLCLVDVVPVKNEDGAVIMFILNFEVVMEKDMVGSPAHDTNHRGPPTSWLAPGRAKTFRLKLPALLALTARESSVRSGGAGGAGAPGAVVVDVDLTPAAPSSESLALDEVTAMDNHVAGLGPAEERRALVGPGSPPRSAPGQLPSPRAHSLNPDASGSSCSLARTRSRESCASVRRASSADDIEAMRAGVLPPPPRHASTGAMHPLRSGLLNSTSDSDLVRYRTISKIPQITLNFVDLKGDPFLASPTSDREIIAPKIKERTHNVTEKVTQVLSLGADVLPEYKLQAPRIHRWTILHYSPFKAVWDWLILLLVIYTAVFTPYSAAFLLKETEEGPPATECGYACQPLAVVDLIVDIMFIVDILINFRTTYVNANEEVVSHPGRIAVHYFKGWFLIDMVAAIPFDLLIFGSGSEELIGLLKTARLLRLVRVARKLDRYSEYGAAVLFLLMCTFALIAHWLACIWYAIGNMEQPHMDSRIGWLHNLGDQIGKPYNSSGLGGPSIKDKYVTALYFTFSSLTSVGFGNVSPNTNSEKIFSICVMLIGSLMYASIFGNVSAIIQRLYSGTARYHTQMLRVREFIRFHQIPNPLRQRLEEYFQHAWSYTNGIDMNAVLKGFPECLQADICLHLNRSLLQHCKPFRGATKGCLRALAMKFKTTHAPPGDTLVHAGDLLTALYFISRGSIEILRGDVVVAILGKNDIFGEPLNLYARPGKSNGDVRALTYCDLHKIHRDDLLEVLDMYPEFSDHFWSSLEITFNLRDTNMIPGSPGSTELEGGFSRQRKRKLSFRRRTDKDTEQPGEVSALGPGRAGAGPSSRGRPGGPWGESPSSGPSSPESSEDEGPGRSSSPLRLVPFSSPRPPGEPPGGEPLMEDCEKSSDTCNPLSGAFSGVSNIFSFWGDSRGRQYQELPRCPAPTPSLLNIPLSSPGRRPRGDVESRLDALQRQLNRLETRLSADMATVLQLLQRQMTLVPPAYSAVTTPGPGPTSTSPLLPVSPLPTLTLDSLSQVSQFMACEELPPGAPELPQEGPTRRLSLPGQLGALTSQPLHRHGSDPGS

| SMILES | IC50 [1] | IC50 [2] |
| --- | --- | --- |
| C[C@@H]1CN(c2c(F)c(N)c3c(=O)c(C(=O)O)cn(C4CC4)c3c2F)C[C@H](C)N1 [SPARFLOXACIN] | 26300 nM | – |
| CN1CCN(CCCCN2C(=O)CN(/N=C/c3ccc(-c4ccc(Cl)cc4)o3)C2=O)CC1 | 562 nM | – |
| CN(c1nccc(=O)[nH]1)C1CCN(c2nc3ccccc3n2Cc2ccc(F)cc2)CC1 [MIZOLASTINE] | – | 355 nM |
